Experimental findings from US5773451A, “Substituted arylthioalkylthiopyridines” (BYK Gulden Lomberg Chemische Fabrik GmbH, priority 1993, dated 1998) are described below.

≈ marks a conversion by molar mass, not a printed value.

This test relates to Helicobacter pylori. Put plainly: activity against Helicobacter pylori (MIC 50, Columbia agar, growth period of 4 days). The test is classed as cell-based. The settings on record: 96 h, Columbia agar (Oxoid), method of Iwahi et al., approximate values, read-out: Approx. MIC 50 value. An excerpt: The compounds of formula I have been investigated in respect of their activity against Helicobacter pylori in accordance with the method described by Tomoyuki Iwahi et al. (Antimicrobial Agents and Chemo-therapy, 1991, 490-496) using Columbia agar (Oxoid) over a growth period of 4 days. The approximate MIC 50 values listed in the following Table 2 resulted from these tests for the compounds studied (the numbers stated for the compounds agree with the compound numbers in the description).

As for `Cc1c(SCCCSc2nccn2C)ccnc1CSc1nc2ccccc2[nH]1` [Compound 3, 2-{[[3-Methyl-4-(3-(1-methylimidazol-2-yl-thio)-propylthio)-2-pyridinyl]methyl]thio}-1H-benzimidazole], the MIC50 was ~0.05 µg/mL (≈ 0.113 µM).
For `Cc1c(SCCCSc2nncs2)ccnc1CSc1nc2ccccc2[nH]1.Cl.Cl.Cl` [Compound 18, 2-{[[3-Methyl-4-(3-(1,3,4-thiadiazol-2-yl-thio)-propylthio)-2-pyridinyl]methyl]thio}-1H-benzimidazole trihydrochloride], the MIC50 was ~0.05 µg/mL.
With `Cc1c(SCCCSc2ccncc2)ccnc1CSc1nc2ccccc2[nH]1` [Compound 19, 2-{[[3-Methyl-4-(3-(pyridin-4-yl-thio)-propylthio)-2-pyridinyl]methyl]thio}-1H-benzimidazole], the MIC50 was ~0.05 µg/mL (≈ 0.114 µM).
With `Cc1c(SCCCSc2ncc[nH]2)ccnc1CSc1nc2ccccc2[nH]1` [Compound 6, 2-{[[4-[3-Imidazol-2-yl-thio-propylthio]-3-methyl-2-pyridinyl]methyl]thio}-1H-benzimidazole] the figure was ~0.1 µg/mL (≈ 0.234 µM); with `Cc1c(SCCCSc2ncccn2)ccnc1CSc1nc2ccccc2[nH]1` [Compound 11, 2-{[[3-Methyl-4-(3-(pyrimidin-2-yl-thio)-propylthio)-2-pyridinyl]methyl]thio}-1H-benzimidazole], ~0.05 µg/mL (≈ 0.114 µM); with `Cc1c(SCCCSc2ccccc2)ccnc1CSc1nc2ccccc2[nH]1` [Compound 13], ~0.05 µg/mL (≈ 0.114 µM).
As for `Cc1c(SCCCSc2nccs2)ccnc1CSc1nc2ccccc2[nH]1` [Compound 9, 2-{[[3-Methyl-4-(3-(thiazol-2-yl-thio)-propylthio)2-pyridinyl]methyl]thio}-1H-benzimidazole], the MIC50 was ~0.05 µg/mL (≈ 0.112 µM).
In the case of `Cc1c(SCCCSc2nnc(N)s2)ccnc1CSc1nc2ccccc2[nH]1` [Compound 5, 2-{[[4-[3-(5-Amino-1,3,4-thiadiazol-2-yl-thio)-propylthio]-3-methyl-2-pyridinyl]methyl]thio}-1H-benzimidazole], the MIC50 was ~0.5 µg/mL (≈ 1.09 µM).
For `Cc1ccnc(SCCCSc2ccnc(CSc3nc4ccccc4[nH]3)c2C)n1` [Compound 16, 2-{[[3-Methyl-4-[3-(4-methyl-pyrimidine-2-yl-thio)-propylthio]-2-pyridinyl]methyl]thio}-1H-benzimidazole], the MIC50 is ~0.05 µg/mL (≈ 0.11 µM).
In the case of `Cc1c(SCCCSc2ccccn2)ccnc1CSc1nc2ccccc2[nH]1` [Compound 10, 2-{[[3-Methyl-4-(3-(pyridin-2-yl-thio)-propylthio)-2-pyridinyl]methyl]thio}-1H-benzimidazole], the MIC50 is ~0.05 µg/mL (≈ 0.114 µM).
As to `Cc1c(SCCCSc2nnnn2C)ccnc1CSc1nc2ccccc2[nH]1` [Compound 8, 2-{[[3-Methyl-4-(3-(1-methyl-tetrazol-5-yl-thio)-propylthio)-2-pyridinyl]methyl]thio}-1H-benzimidazole], the MIC50 is ~0.05 µg/mL (≈ 0.113 µM).
As for `Cc1c(SCCCSc2nc3ccccc3[nH]2)ccnc1CSc1nc2ccccc2[nH]1` [Compound 12], the MIC50 was ~0.05 µg/mL (≈ 0.105 µM).
For the compound `Cc1c(SCCCCSc2nnnn2C)ccnc1CSc1nc2ccccc2[nH]1` [Compound 24, 2-{[[3-Methyl-4-(4-(1-methyl-tetrazol-5-yl-thio)-butylthio)-2-pyridinyl]methyl]thio}-1H-benzimidazole], the MIC50 is ~0.05 µg/mL (≈ 0.109 µM).
As to `Cc1c(SCCCSc2nncn2C)ccnc1CSc1nc2ccccc2[nH]1` [Compound 2, 2-{[[3-Methyl-4-(3-(4-methyl-1,2,4-triazol-3-yl-thio)-propylthio)-2-pyridinyl]methyl]thio}-1H-benzimidazole], the MIC50 is ~0.05 µg/mL (≈ 0.113 µM).
As for `Cc1nnc(SCCCSc2ccnc(CSc3nc4ccccc4[nH]3)c2C)s1` [Compound 1], the MIC50 was ~0.1 µg/mL (≈ 0.218 µM).
